Experimental findings from patent US5157041A, “Amino acid derivatives” (Hoffmann-La Roche Inc., priority 1988, dated 1992) are described below.

The first assay concerns the target T1, HIV protease (Human immunodeficiency virus type 1 group M subtype B, UniProt P04585).
T1 construct: HIV protease was expressed in E. coli; made in house; host or cells: E. coli
As to the kind of experiment: biochemical. Particulars: partially purified HIV protease expressed in E. coli; substrate succinyl-Ser-Leu-Asn-Tyr-Pro-Ile isobutylamide; citrate buffer pH 5.5; 37° C.; read-out: I50 (concentration of test compound required to give 50% inhibition). As for the experimental part:
HIV protease was expressed in E. coli and partially purified from soluble extracts of the bacterium by ammonium sulphate fractionation (0-30%). Protease activity was assayed using the protected hexapeptide succinyl-Ser-Leu-Asn-Tyr-Pro-Ile isobutylamide as the substrate. Cleavage of the substrate was quantified by measuring the production of H-Pro-Ile isobutylamide by the spectrophotometric assay of N-terminal proline.
1.25 mM of substrate were dissolved in 125 mM of citrate buffer (pH 5.5) containing 0.125 mg/ml of Tween 20. 10 μl of a solution of various concentrations of the test compound (dissolved in methanol or […]) and 10 μl of protease were added to 80 μl of the above buffered substrate. Digestion was carried out at 37° C. for a fixed period of time and was terminated by the addition of 1 ml of colour reagent [30 μg/ml of isatin and 1.5 mg/ml of 2-(4-chlorobenzoyl)benzoicacid in 10% acetone in ethanol (vol./vol.)]. The solution was heated in a water bath and then the pigmented residues were re-dissolved in 1 ml of 1% pyrogallol in 33% water in acetone (wt./vol./vol.). The optical density of the solution was measured spectrophotometrically at 599 nm.
With `CC(C)(C)NC(=O)C1Cc2ccccc2CN1C[C@@H](O)[C@H](Cc1ccccc1)NC(=O)[C@H](CC(N)=O)NC(=O)OCc1ccccc1` (mixture of isomers) [Compound I, 2-[3(S)-[[N-(benzyloxycarbonyl)-L-asparaginyl]amino]-2(R)-hydroxy-4-phenylbutyl]-N-tert.butyl-1,2,3,4-tetrahydro-3(R,S)-isoquinolinecarboxamide], the IC50 was 85 nM.
Same read-out and setting: with `CC[C@H](C)[C@H](NC(=O)[C@@H]1CCCN1CC(O)[C@H](Cc1ccccc1)NC(=O)[C@H](CC(N)=O)NC(=O)[C@H](CC(C)C)NC(=O)OCc1ccccc1)C(=O)NCC(C)C` (mixture of isomers) [Compound E, N^2-[N-[3(S)-[[N-[N-(benzyloxycarbonyl)-L-leucyl]-L-asparaginyl]amino]-2(R and S)-hydroxy-4-phenylbutyl]-L-prolyl]-N^1-isobutyl-L-isoleucinamide] the figure was 750 nM.
The same measure, in the same setting: then `CC[C@H](C)[C@H](NC(=O)[C@@H]1CCCN1CC(O)[C@H](Cc1ccccc1)NC(=O)[C@H](CC(N)=O)NC(=O)OCc1ccccc1)C(=O)NCC(C)C` (single isomer, unassigned) [Compound D], with 130 nM; and `CC(C)CCNC(=O)[C@@H]1CCCN1CC(O)[C@H](Cc1ccccc1)NC(=O)[C@H](CC(N)=O)NC(=O)OCc1ccccc1` (single isomer, unassigned) [Compound F], with 750 nM; and `CC(C)CNC(=O)[C@@H]1CCCN1CC(O)[C@H](Cc1ccccc1)NC(=O)[C@H](CC(N)=O)NC(=O)OCc1ccccc1` (single isomer, unassigned) [Compound G, N^2-[3(S)-[[N-(benzyloxycarbonyl)-L-asparaginyl]amino]-2(R or S)-hydroxy-4-phenylbutyl]-N^1-isobutyl-L-prolinamide], with 80 nM.
Turning to `CC(C)(C)OC(=O)[C@@H]1CCCN1CC(=O)[C@H](Cc1ccccc1)NC(=O)[C@H](CC(N)=O)NC(=O)OCc1ccccc1` [Compound A, N-[N-[[N-(benzyloxycarbonyl)-L-asparaginyl]-L-phenylalanyl]methyl]-L-proline tert.butyl ester], the IC50 stood at 870 nM.
Still for that read-out and setting: with `CC(C)(C)OC(=O)[C@@H]1CCCN1C[C@@H](O)[C@H](Cc1ccccc1)NC(=O)[C@H](CC(N)=O)NC(=O)c1ccc2ccccc2c1` [Compound H, N-[2(R)-hydroxy-3(S)-[[N-(2-naphthoyl)-L-asparaginyl]amino]-4-phenylbutyl]-L-proline tert.butyl ester] the figure was 10 nM.

Staying with this assay, now noted: read-out: I50 (concentration of test compound required to give 50% inhibition).
For the molecule `CC(C)(C)OC(=O)[C@@H]1CCCN1C[C@@H](O)[C@H](Cc1ccccc1)NC(=O)[C@H](CC(N)=O)NC(=O)OCc1ccccc1` [Compound B, N-[3(S)-[[N-(benzyloxycarbonyl)-L-asparaginyl]amino]-2(R)-hydroxy-4-phenylbutyl]-L-proline tert.butyl ester], the IC50 stood at 150 nM.
On the same count and under the same terms, then `CC(C)(C)OC(=O)[C@@H]1CCCN1C[C@H](O)[C@H](Cc1ccccc1)NC(=O)[C@H](CC(N)=O)NC(=O)OCc1ccccc1` [Compound C, N-[3(S)-[[N-(benzyloxycarbonyl)-L-asparaginyl]amino]-2(S)-hydroxy-4-phenylbutyl]-L-proline tert.butyl ester], with 300 nM.
